Measured values: ChEMBL document CHEMBL4680293, “Tubulin inhibitory activity of a novel colchicine-binding compounds based on a dinaphthospiropyranran scaffold” (Bioorg Med Chem, 2021)
Calls of active or inactive are those of the source. The rule behind the calls is not given here.

These compounds were tested against Tubulin (Homo sapiens) (UniProt P68371+Q9H4B7+P0DPH7+P68366+Q13509+Q71U36+P04350+Q3ZCM7+P07437+P68363+Q9BQE3+Q6PEY2+Q13885+Q9BVA1+Q9BUF5) (assay: Inhibition of tubulin (unknown origin) assessed as inhibition of tubulin polymerization at 10 uM measured for 50 mins by fluorescence based analysis).
Assay type: protein-complex assay
CC[C@]1(O)C[C@@H]2CN(CCc3c([nH]c4ccccc34)[C@@](C(=O)OC)(c3cc4c(cc3OC)N(C)[C@H]3[C@@](O)(C(=O)OC)[C@H](OC(C)=O)[C@]5(CC)C=CCN6CC[C@]43[C@@H]65)C2)C1 was tested, and the inhibition was “Active”. In the case of C1=C2COCC3=Cc4c(ccc5ccccc45)OC23Oc2ccc3ccccc3c21, the inhibition is reported as “Active”. With C1=C2CCC3=Cc4c(ccc5ccccc45)OC23Oc2ccc3ccccc3c21 the inhibition was “Active”.
